Data as given in ChEMBL document CHEMBL2216747, “Effect of daurisoline on HERG channel electrophysiological function and protein expression” (J Nat Prod, 2012).

What was measured:
[1] = Inhibition of Ikr tail current in rabbit ventricular myocytes; format: cell-based; conditions: Oryctolagus cuniculus, Ventricular myocyte
IKs (KCNE1) = IKs (KCNE1) (Cavia porcellus, UniProt Q60409); assay: Inhibition of Iks tail current in guinea pig ventricular myocytes at 100 uM; format: cell-based, Ventricular myocyte
IKr = assay: Inhibition of Ikr tail current in guinea pig ventricular myocytes at 10 uM; format: cell-based, Cavia porcellus, Ventricular myocyte
HEK293 [2] = assay: Downregulation of human ERG expression in HEK293 cells assessed as change in intensity of 135 kDa band at 1 to 10 uM after 24 hrs by Western blot analysis; format: ADME, cell-based; conditions: hek293, 24 h
HEK293 [3] = assay: Downregulation of human ERG expression in HEK293 cells assessed as decrease in intensity of 155 kDa band at 30 uM after 24 hrs by Western blot analysis; format: ADME, cell-based; conditions: hek293, 24 h
[4] = Cmax in dog at 30 uM, iv administered as bolus dose; format: ADME, organism-based, Canis lupus familiaris; set-up: dose 30 uM, route intravenous; conditions: in vivo
[5] = Cmax in rabbit at 30 uM, iv administered as bolus dose; format: ADME, organism-based, Oryctolagus cuniculus; set-up: dose 30 uM, route intravenous; conditions: in vivo
HEK293 [6] = assay: Reduction in human ERG-tail density expressed in HEK293 cells at 30 uM after 24 hrs by densitometric analysis; format: ADME, cell-based; conditions: hek293, 24 h
HEK293 [7] = assay: Downregulation of human ERG expression in HEK293 cells assessed as change in intensity of 155 kDa band at 1 to 10 uM after 24 hrs by Western blot analysis; format: ADME, cell-based; conditions: hek293, 24 h
[8] = molecular target: Potassium voltage-gated channel subfamily E member 1 (Oryctolagus cuniculus, UniProt Q28705); assay: Inhibition of Iks tail current in rabbit ventricular myocytes; format: cell-based, Ventricular myocyte
HEK293 [9] = assay: Downregulation of human ERG mRNA expression in HEK293 cells at 30 uM after 24 hrs by qRT-PCR analysis; format: ADME, cell-based; conditions: hek293, 24 h
HEK293 [10] = assay: Downregulation of human ERG mRNA expression in HEK293 cells at 30 uM after 24 hrs by RT-PCR analysis; format: ADME, cell-based; conditions: hek293, 24 h
HEK293 [11] = assay: Downregulation of human ERG expression in HEK293 cells assessed as decrease in intensity of 135 kDa band at 30 uM after 24 hrs by Western blot analysis; format: ADME, cell-based; conditions: hek293, 24 h

Potassium voltage-gated channel subfamily E member 1, sequence (Q28705 whole entry): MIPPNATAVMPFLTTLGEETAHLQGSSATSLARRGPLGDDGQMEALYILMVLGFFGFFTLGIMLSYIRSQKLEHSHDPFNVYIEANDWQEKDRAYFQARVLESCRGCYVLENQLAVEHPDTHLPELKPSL
IKs (KCNE1), sequence (Q60409 whole entry): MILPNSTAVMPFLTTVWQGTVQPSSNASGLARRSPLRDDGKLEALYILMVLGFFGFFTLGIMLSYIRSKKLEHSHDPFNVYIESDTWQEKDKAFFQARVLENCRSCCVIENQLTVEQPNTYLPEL

COc1cc2c(cc1O)[C@@H](Cc1ccc(O)c(Oc3ccc(C[C@@H]4c5cc(OC)c(OC)cc5CCN4C)cc3)c1)N(C)CC2 [DARUISOLINE]
IC50 [1]: 19.9 µM
inhibition at 100 µM (IKs (KCNE1)): 50%
inhibition at 10 µM (IKr): 39%
Activity (HEK293 [2]): Non-toxic
Activity (HEK293 [3]): Toxic
Cmax at 30 µM [4]: 1700 nM
Cmax at 30 µM [5]: 1700 nM
Activity (HEK293 [6]): Toxic
Activity (HEK293 [7]): Non-toxic
IC50 [8]: 52.5 µM
Activity (HEK293 [9]): Toxic
Activity (HEK293 [10]): Toxic
Activity (HEK293 [11]): Toxic
